Measured values published in patent US20050187239A1 (priority 2002, published 2005).

Test system: Male CD-1 mice
Conditions: mouse, in vivo

Row | SMILES | ED50 Value, Combination (Total Drug Dose), Additive (predicted) [mg/kg s.c.] | ED50 Value, Combination (Total Drug Dose), Observed [mg/kg s.c.] | ED50 Value, Drug alone | isobolographic analysis: combination with methadone versus composite additive line (FIG. 3) | interaction with a fixed dose of L-methadone (FIG. 1A) (sc) | further results
1 | COc1ccc2c3c1O[C@H]1[C@@H](O)C=C[C@H]4[C@@H](C2)N(C)CC[C@@]341 [Codeine, codeine] | 2.79 ± 0.22 | 0.74 ± 0.10 | 3.7 ± 0.4 mg/kg s.c. | significantly greater than the composite additive line | greater than additive responses | –
2 | CCC(=O)C(C[C@H](C)N(C)C)(c1ccccc1)c1ccccc1 [D-Methadone, D-methadone] | – | – | >>4 mg/kg s.c. | – | – | analgesic effect alone: did not show any effects alone; effect on morphine responses when given together (FIG. 2): did not influence morphine responses
3 | CCC(=O)C(C[C@@H](C)N(C)C)(c1ccccc1)c1ccccc1 [L-Methadone, L-methadone] | – | – | 1.9 ± 0.2 mg/kg s.c. | – | – | ED80 dose: 4 mg/kg s.c.; effect on morphine responses when given together (FIG. 2): did reveal synergy; interaction with morphine (FIG. 1B) (sc): greater than additive interactions
4 | CN1CC[C@]23c4c5ccc(O)c4O[C@H]2[C@@H](O[C@@H]2O[C@H](C(=O)O)[C@@H](O)[C@H](O)[C@H]2O)C=C[C@H]3[C@H]1C5 [M6G, morphine-6β-glucuronide] | 2.80 ± 0.21 | 1.03 ± 0.34 | 3.7 ± 0.4 mg/kg s.c. | significantly greater than the composite additive line | greater than the sum of their independent actions | –
5 | CN1CC[C@]23c4c5ccc(O)c4O[C@H]2[C@@H](O)C=C[C@H]3[C@H]1C5 [Morphine, morphine] | 3.11 ± 0.32 | 0.83 ± 0.12 | 4.7 ± 1.1 mg/kg s.c. | significant greater than the composite additive line | greater than the sum of their independent actions | analgesic activity of the combination versus additivity (FIG. 4): significantly greater than additive
6 | CCOC(=O)C1(c2ccccc2)CCN(C)CC1 [meperidine] | – | – | – | – | additive interactions | –
7 | COc1ccc2c3c1O[C@H]1C(=O)CC[C@@]4(O)[C@@H](C2)N(C)CC[C@]314 [oxycodone] | – | – | – | – | additive interactions | –
8 | CN1CC[C@]23c4c5ccc(O)c4O[C@H]2C(=O)CC[C@@]3(O)[C@H]1C5 [oxymorphone] | – | – | – | – | additive interactions | –
